The results in this text go back to patent US20230049952A1, “METHODS AND COMPOUNDS FOR RESTORING MUTANT P53 FUNCTION” (PMV Pharmaceuticals, Inc., priority 2020, published 2023).

Data set [1] deals with T1, MATE1 (Homo sapiens, UniProt Q96FL8). Briefly: uptake transporter inhibition assessment, transfected HEK293. Particulars: inhibitor 100 μM.
Data set [2] concerns the target T1, MATE1. Briefly: in vitro. Conditions: HEK293 cells transfected with MATE1, probe metformin (50 µM).
In data set [3] the target is T2, CYP2D6 (Homo sapiens, UniProt P10635). Conditions: both, microsomes, 30 min, 0.123 µM, pH 7.4.
For data set [4], the target named is T2, CYP2D6. Briefly: in vitro. Particulars: both, microsomes, pH 7.4, % of Control Enzyme Activity.
Data set [5] deals with T3, OAT3 (Homo sapiens, UniProt Q8TCC7). As to the kind of experiment: in vitro. Conditions: HEK293 cells transfected with OAT3, probe furosemide (5 µM).
Data set [6] deals with T3, OAT3. As to the kind of experiment: uptake transporter inhibition assessment, transfected HEK293. Particulars: inhibitor 100 μM.
The target of data set [7] is T4, MATE2K (Homo sapiens, UniProt Q86VL8). Briefly: in vitro. Conditions: HEK293 cells transfected with MATE2K, probe metformin (50 µM).
Data set [8] has as its target T4, MATE2K. As to the kind of experiment: uptake transporter inhibition assessment, transfected HEK293. Particulars: inhibitor 1 μM.
In data set [9] the target is T5, P-GP (Homo sapiens, UniProt P08183). As to the kind of experiment: P-GP substrate assessment, Caco-2 monolayers.
Data set [10] has as its target T5, P-GP. Briefly: in vitro. Conditions: Caco-2, pH 7.4.
Data set [11] concerns the target T5, P-GP. Briefly: in vitro.
The next data set relates to P-gp (MDR1). Briefly: in vitro. Particulars: dog, MDCK-MDR1.
In data set [12] the test system is P-gp. As to the kind of experiment: in vitro. Particulars: dog, MDCK-MDR1, pH 7.4.
The target of data set [13] is T5, P-GP. Briefly: in vitro. Particulars: dog, MDCK-MDR1, pH 7.4.
In data set [14] the target is T5, P-GP. As to the kind of experiment: P-GP substrate assessment, MDR1-MDCK monolayers. Particulars: for Recovery (%): B-to-A.
In data set [15] the test system is P-gp. Briefly: in vitro. Particulars: human, Caco-2, pH 7.4.
A short description of another data set: in vitro. Particulars: human, Caco-2.
Data set [16] has as its target T5, P-GP. Particulars: Caco-2, 120 min, 10 µM, pH 7.4.

Where two headings read alike, the source gives them in different places.

The inhibition is the change of the read-out against control, counted positive when it falls. A word on the Papp A→B: it is how fast a substance crosses the layer from the apical side. For orientation: Papp B→A means how fast a substance crosses the layer from the basolateral side.

T5 sequence (P08183 whole entry): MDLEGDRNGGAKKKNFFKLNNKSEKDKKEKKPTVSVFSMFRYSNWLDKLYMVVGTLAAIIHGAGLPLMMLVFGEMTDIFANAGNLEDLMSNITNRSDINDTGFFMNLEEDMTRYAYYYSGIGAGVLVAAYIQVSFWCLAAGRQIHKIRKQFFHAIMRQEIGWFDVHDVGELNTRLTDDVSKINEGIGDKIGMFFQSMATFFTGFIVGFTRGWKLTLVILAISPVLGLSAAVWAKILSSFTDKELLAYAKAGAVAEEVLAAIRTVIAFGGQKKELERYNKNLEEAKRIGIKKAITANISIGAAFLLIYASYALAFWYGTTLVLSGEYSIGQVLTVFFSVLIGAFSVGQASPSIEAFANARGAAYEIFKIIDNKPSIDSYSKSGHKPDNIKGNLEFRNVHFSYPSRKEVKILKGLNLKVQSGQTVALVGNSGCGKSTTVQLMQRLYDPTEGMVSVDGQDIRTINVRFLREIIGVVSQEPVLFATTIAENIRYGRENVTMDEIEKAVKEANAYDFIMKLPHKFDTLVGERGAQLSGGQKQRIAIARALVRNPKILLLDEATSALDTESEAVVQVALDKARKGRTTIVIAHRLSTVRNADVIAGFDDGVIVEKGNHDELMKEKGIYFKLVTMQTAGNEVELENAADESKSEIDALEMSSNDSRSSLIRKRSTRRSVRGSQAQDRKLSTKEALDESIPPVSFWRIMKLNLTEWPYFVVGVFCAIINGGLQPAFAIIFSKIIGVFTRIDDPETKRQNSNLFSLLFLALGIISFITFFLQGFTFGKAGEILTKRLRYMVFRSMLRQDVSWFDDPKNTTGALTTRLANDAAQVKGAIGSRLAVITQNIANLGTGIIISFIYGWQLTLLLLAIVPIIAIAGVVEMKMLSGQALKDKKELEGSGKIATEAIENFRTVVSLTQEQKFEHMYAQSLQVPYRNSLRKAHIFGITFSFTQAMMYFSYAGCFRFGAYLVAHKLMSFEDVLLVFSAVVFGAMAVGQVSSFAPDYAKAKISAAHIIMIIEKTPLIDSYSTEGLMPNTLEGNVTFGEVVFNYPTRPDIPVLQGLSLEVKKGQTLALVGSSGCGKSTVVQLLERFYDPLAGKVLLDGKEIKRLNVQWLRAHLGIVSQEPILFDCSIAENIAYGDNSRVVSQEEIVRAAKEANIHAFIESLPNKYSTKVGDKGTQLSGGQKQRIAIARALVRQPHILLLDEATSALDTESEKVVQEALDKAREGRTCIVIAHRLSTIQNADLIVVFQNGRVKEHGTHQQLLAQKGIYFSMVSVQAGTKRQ
T3 sequence (Q8TCC7 whole entry): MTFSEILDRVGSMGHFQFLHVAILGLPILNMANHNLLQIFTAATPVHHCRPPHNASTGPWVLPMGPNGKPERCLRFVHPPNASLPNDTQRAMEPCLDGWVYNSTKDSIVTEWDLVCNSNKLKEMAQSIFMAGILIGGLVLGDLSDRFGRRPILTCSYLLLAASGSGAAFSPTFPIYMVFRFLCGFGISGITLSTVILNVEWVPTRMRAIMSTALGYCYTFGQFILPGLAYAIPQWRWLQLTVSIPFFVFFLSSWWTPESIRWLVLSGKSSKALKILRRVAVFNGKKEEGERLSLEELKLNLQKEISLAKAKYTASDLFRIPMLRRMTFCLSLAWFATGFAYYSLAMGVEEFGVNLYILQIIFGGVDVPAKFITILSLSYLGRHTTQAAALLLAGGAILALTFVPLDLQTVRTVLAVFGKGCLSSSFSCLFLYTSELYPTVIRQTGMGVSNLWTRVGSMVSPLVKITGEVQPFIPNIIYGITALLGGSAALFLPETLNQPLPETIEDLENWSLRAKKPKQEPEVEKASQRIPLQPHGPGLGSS
T1 sequence (Q96FL8 whole entry): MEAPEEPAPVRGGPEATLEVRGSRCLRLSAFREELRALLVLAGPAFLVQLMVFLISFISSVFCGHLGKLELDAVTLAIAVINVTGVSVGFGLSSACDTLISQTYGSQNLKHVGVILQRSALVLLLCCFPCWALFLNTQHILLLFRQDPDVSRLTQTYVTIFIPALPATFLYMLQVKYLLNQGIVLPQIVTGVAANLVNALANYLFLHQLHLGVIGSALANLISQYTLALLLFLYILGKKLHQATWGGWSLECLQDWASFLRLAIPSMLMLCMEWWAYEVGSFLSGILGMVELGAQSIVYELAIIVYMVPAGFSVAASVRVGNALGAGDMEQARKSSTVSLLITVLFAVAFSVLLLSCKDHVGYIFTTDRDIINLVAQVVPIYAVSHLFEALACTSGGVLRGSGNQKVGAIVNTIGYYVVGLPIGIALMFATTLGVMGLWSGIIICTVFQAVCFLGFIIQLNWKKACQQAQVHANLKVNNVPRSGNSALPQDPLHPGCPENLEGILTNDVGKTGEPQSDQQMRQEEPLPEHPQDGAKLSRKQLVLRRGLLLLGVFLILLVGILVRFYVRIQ
T4 sequence (Q86VL8 1-566 isoform Q86VL8-3): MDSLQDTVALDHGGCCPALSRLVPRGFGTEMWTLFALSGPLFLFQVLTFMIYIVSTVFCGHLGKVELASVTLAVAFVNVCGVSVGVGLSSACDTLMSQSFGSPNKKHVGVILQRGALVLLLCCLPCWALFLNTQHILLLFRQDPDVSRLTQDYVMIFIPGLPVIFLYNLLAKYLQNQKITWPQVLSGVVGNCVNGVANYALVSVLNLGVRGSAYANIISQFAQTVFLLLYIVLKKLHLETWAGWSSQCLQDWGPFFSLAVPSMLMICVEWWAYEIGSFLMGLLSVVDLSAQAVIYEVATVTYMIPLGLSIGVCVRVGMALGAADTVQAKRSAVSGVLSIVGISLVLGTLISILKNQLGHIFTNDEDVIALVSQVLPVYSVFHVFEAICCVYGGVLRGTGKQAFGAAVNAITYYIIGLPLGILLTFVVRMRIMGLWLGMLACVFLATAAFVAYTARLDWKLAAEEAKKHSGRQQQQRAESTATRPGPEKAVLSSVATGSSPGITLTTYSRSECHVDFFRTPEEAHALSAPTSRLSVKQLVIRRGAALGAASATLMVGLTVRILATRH
T2 sequence (P10635 whole entry): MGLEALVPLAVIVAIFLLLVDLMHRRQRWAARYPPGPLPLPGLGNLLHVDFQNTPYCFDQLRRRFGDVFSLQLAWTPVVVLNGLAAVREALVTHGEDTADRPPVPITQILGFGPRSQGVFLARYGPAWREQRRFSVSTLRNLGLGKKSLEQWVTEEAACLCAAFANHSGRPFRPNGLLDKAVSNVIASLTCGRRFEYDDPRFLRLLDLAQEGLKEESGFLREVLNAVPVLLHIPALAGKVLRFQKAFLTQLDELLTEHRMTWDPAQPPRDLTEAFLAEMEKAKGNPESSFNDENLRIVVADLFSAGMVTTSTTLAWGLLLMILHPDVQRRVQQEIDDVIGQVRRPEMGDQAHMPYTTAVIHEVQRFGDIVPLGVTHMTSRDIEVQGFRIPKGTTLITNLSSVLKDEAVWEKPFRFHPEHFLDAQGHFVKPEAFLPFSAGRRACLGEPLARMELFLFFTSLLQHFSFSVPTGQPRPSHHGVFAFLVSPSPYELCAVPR

For the molecule `CN/C(=N/CCSCc1nc[nH]c1C)NC#N` [Cimetidine], the “Inhibition Potential Classification” value at MATE1 [1] is given as “Positive (Percent inhibition≥50%: Positive)”. The molecule further returned an inhibition at 100 µM at MATE1 [2] of 99.2%.

`Fc1ccc([C@@H]2CCNC[C@H]2COc2ccc3c(c2)OCO3)cc1` [Paroxetine]: the “% of Control Enzyme Activity” value on CYP2D6 [3] is recorded as 79.1%. In addition, on CYP2D6 [4], the activity at 30 min, 0.123 µM came to 95.8%.

At OAT3 [5], `CCCN(CCC)S(=O)(=O)c1ccc(C(=O)O)cc1` [Probenecid] displayed an inhibition at 100 µM of 72%. Moreover, on OAT3 [6], the “Inhibition Potential Classification” value is reported as “Positive (Percent inhibition≥50%: Positive)”.

At MATE2K [7], `CCc1nc(N)nc(N)c1-c1ccc(Cl)cc1` [Pyrimethamine] came in with an inhibition at 1 µM of 93.3%. Further, the “Inhibition Potential Classification” value at MATE2K [8] was “Positive (Percent inhibition≥50%: Positive)”.

In the case of `C[C@H]1O[C@@H](O[C@H]2[C@@H](O)C[C@H](O[C@H]3[C@@H](O)C[C@H](O[C@H]4CC[C@@]5(C)[C@H](CC[C@@H]6[C@@H]5C[C@@H](O)[C@]5(C)[C@@H](C7=CC(=O)OC7)CC[C@]65O)C4)O[C@@H]3C)O[C@@H]2C)C[C@H](O)[C@@H]1O` [Digoxin, digoxin], the “P-gp Substrate Classification” value at P-GP [9] (Digoxin) and at P-GP [14] (Digoxin) was “Positive” each time. Also, the “Recovery (%)” value is listed as 72.2% on P-GP [9] (Digoxin + 1 μM Valspodar, A-to-B); 95.3% at P-GP [9] (Digoxin + 1 μM Valspodar, B-to-A); 79.9% on P-GP [9] (Digoxin, B-to-A); 85.9% on P-GP [14] (Digoxin + 1 μM Valspodar); 74.9% on P-GP [14] (Digoxin); 79.9% on P-GP [16]. The “Papp AVG” value was 0.494 10^−6 cm/s on P-GP [9] (Digoxin, A-to-B); 10.9 10^−6 cm/s on P-GP [9] (Digoxin, B-to-A); 0.0321 10^−6 cm/s at P-GP [14] (Digoxin, A-to-B). Also, the “Papp R1” value at P-GP [9] (Digoxin, B-to-A) was 11.4 10^−6 cm/s; on P-GP [14] (Digoxin, A-to-B), 0.0436 10^−6 cm/s. For the same molecule, the Papp A→B at 120 min came to 0.344 ×10⁻⁶ cm/s on P-GP [10], 0.0792 ×10⁻⁶ cm/s in the data set with P-gp [12] and 0.403 ×10⁻⁶ cm/s in the data set on P-gp [15]. In addition, the Papp B→A at 120 min was determined as 10.5 ×10⁻⁶ cm/s at P-GP [10], 10.4 ×10⁻⁶ cm/s at P-GP [13] and 8.93 ×10⁻⁶ cm/s in the data set on P-gp [15]. Further, the recovery at 120 min at P-GP [10] amounted to 73.4%; on P-GP [13], 77.6%. Besides, the recovery at 120 min, 10 µM at P-GP [11] (Caco-2, pH 7.4, % Recovery) was determined as 95.4%; at P-GP [11] (Caco-2, pH 7.4, Recovery (%)) it was 73.4%. The Papp B→A at 120 min, 10 μM on P-GP [11] (Caco-2, pH 7.4, Papp AVG) was 10.9 ×10⁻⁶ cm/s; on P-GP [11] (Caco-2, pH 7.4, Papp R2), 10.5 ×10⁻⁶ cm/s. The Papp A→B at 120 min, 10 μM came out at 0.344 ×10⁻⁶ cm/s on P-GP [11] (Caco-2, pH 7.4, Papp R1) and 0.645 ×10⁻⁶ cm/s on P-GP [11] (Caco-2, pH 7.4, Papp R2). In the data set with P-gp (MDR1), this molecule yielded a Papp B→A of 11 ×10⁻⁶ cm/s. Further, the Papp A→B in the data set “in vitro” was found to be 0.511 ×10⁻⁶ cm/s.
